Measurements as given in patent publication US20040254162A1, “Oxazolidinone derivatives as antimicrobials” (priority 2001, published 2004).
In brackets after ≈: the same amount, converted by molar mass.

Columns and labels:
Experiment in all cases: MIC, agar incorporation method
MRSA 33 = conditions: agar incorporation
MRSA 562 = conditions: agar incorporation; Table 1
Strep. pyog. ATCC 19615 = conditions: agar incorporation
S. aureus ATCC 25923 = conditions: agar incorporation
S. pneum AB 34 = conditions: agar incorporation
Ent. faecalis ATCC 29212 = conditions: agar incorporation
VRE 6A (Ent. faecium 6A) = conditions: agar incorporation
MRSA 15187 = conditions: agar incorporation
Strep. pne. ATCC 6303 = conditions: agar incorporation

## CC(=O)NC[C@H]1CN(c2ccc(N3CCN(Cc4cccs4)CC3)c(F)c2)C(=O)O1 [Compound No. 12, (S)-N-[[3-[3-Fluoro-4-[N-1[4-(2-thienylmethyl)]piperazinyl]phenyl]-2-oxo-5-oxazolidinyl]methyl]acetamide]
MRSA 33
  MIC MRSA 33: 8 µg/mL (≈ 18.5 µM)
MRSA 562
  MIC MRSA 562: 8 µg/mL (≈ 18.5 µM)
Strep. pyog. ATCC 19615
  MIC S. pyogenes 19615: 4 µg/mL (≈ 9.25 µM)
S. aureus ATCC 25923
  MIC S. aureus 25923: 8 µg/mL (≈ 18.5 µM)
S. pneum AB 34
  MIC S. pneum AB 34: 8 µg/mL (≈ 18.5 µM)
Ent. faecalis ATCC 29212
  MIC E. faecalis 29212: 8 µg/mL (≈ 18.5 µM)
VRE 6A (Ent. faecium 6A)
  MIC VRE 6A: 8 µg/mL (≈ 18.5 µM)
MRSA 15187
  MIC MRSA 15187: 8 µg/mL (≈ 18.5 µM)
Strep. pne. ATCC 6303
  MIC S. pneum 6303: 8 µg/mL (≈ 18.5 µM)

## CC(=O)NC[C@H]1CN(c2ccc(N3CCN(C(=O)c4ccco4)CC3)c(F)c2)C(=O)O1 [Compound No. 01, (S)-N-[[3-[3-Fluoro-4-[N-1-[4-(2-furoyl)piperazinyl]]phenyl]-2-oxo-5-oxazolidinyl]methyl]acetamide]
MRSA 33
  MIC MRSA 33: 4 µg/mL (≈ 9.29 µM)
Strep. pyog. ATCC 19615
  MIC S. pyogenes 19615: 1 µg/mL (≈ 2.32 µM)
S. aureus ATCC 25923
  MIC S. aureus 25923: 2 µg/mL (≈ 4.65 µM)
S. pneum AB 34
  MIC S. pneum AB 34: 1 µg/mL (≈ 2.32 µM)
Ent. faecalis ATCC 29212
  MIC E. faecalis 29212: 2 µg/mL (≈ 4.65 µM)
VRE 6A (Ent. faecium 6A)
  MIC VRE 6A: 2 µg/mL (≈ 4.65 µM)
MRSA 15187
  MIC MRSA 15187: 2 µg/mL (≈ 4.65 µM)
Strep. pne. ATCC 6303
  MIC S. pneum 6303: 2 µg/mL (≈ 4.65 µM)

## CC(=O)NC[C@H]1CN(c2ccc(N3C[C@@H]4[C@@H](CN(C)C(=O)Cc5cccs5)[C@@H]4C3)c(F)c2)C(=O)O1 [Compound No. 38, (S)-N-[[3-[3-Fluoro[4-[3-(1α,5α,6α)-6-[N-(2-thiopheneacetyl)-N-methyl]amino-methyl]-3-azabicyclo-[3.1.0]hexane]phenyl]-2-oxo-5-oxazolidinyl]methyl]acetamide]
MRSA 33
  MIC MRSA 33: 4 µg/mL (≈ 7.99 µM)
MRSA 562
  MIC MRSA 562: 4 µg/mL (≈ 7.99 µM)
Strep. pyog. ATCC 19615
  MIC S. pyogenes 19615: 1 µg/mL (≈ 2 µM)
S. aureus ATCC 25923
  MIC S. aureus 25923: 4 µg/mL (≈ 7.99 µM)
S. pneum AB 34
  MIC S. pneum AB 34: 1 µg/mL (≈ 2 µM)
Ent. faecalis ATCC 29212
  MIC E. faecalis 29212: 4 µg/mL (≈ 7.99 µM)
VRE 6A (Ent. faecium 6A)
  MIC VRE 6A: 4 µg/mL (≈ 7.99 µM)
MRSA 15187
  MIC MRSA 15187: 4 µg/mL (≈ 7.99 µM)
Strep. pne. ATCC 6303
  MIC S. pneum 6303: 1 µg/mL (≈ 2 µM)

## CC(=O)NC[C@H]1CN(c2ccc(N3CCC(N(C)Cc4ccc([N+](=O)[O-])s4)CC3)c(F)c2)C(=O)O1 [Compound No. 51, (S)-N-[[3-[4-[4-(N-methyl-N-2-thienyl(5-nitro)methyl)aminopiperidine-1-yl]-3-fluorophenyl]-2-oxo-oxazolidin-5-yl]methyl]acetamide]
MRSA 33
  MIC MRSA 33: 1 µg/mL (≈ 1.98 µM)
MRSA 562
  MIC MRSA 562: 1 µg/mL (≈ 1.98 µM)
Strep. pyog. ATCC 19615
  MIC S. pyogenes 19615: 0.5 µg/mL (≈ 0.989 µM)
S. aureus ATCC 25923
  MIC S. aureus 25923: 2 µg/mL (≈ 3.96 µM)
S. pneum AB 34
  MIC S. pneum AB 34: 2 µg/mL (≈ 3.96 µM)
Ent. faecalis ATCC 29212
  MIC E. faecalis 29212: 4 µg/mL (≈ 7.91 µM)
VRE 6A (Ent. faecium 6A)
  MIC VRE 6A: 4 µg/mL (≈ 7.91 µM)
MRSA 15187
  MIC MRSA 15187: 1 µg/mL (≈ 1.98 µM)

## CC(=O)NC[C@H]1CN(c2ccc(N3C[C@@H]4[C@H](C3)[C@H]4N(C)Cc3ccc([N+](=O)[O-])s3)c(F)c2)C(=O)O1 [Compound No. 34, (S)-N-[[3-[3-Fluoro[4-[3-(1α,5α,6α)-6-[N-(5-nitro-2-thienylmethyl)-N-methyl]-amino]-3-azabicyclo-[3.1.0]hexane]phenyl]-2-oxo-5-oxazolidinyl]methyl]acetamide]
MRSA 33
  MIC MRSA 33: 1 µg/mL (≈ 1.99 µM)
MRSA 562
  MIC MRSA 562: 1 µg/mL (≈ 1.99 µM)
Strep. pyog. ATCC 19615
  MIC S. pyogenes 19615: 2 µg/mL (≈ 3.97 µM)
S. aureus ATCC 25923
  MIC S. aureus 25923: 1 µg/mL (≈ 1.99 µM)
S. pneum AB 34
  MIC S. pneum AB 34: 4 µg/mL (≈ 7.94 µM)
Ent. faecalis ATCC 29212
  MIC E. faecalis 29212: 1 µg/mL (≈ 1.99 µM)
VRE 6A (Ent. faecium 6A)
  MIC VRE 6A: 1 µg/mL (≈ 1.99 µM)
MRSA 15187
  MIC MRSA 15187: 1 µg/mL (≈ 1.99 µM)
Strep. pne. ATCC 6303
  MIC S. pneum 6303: 4 µg/mL (≈ 7.94 µM)

## COC(=O)Cc1ccc(NC(=O)ON=Cc2ccc(CN3CCN(c4ccc(N5C[C@H](CNC(C)=O)OC5=O)cc4F)CC3)o2)cc1 [Compound No. 61]
MRSA 33
  MIC MRSA 33: 8 µg/mL (≈ 12.3 µM)
Strep. pyog. ATCC 19615
  MIC S. pyogenes 19615: 8 µg/mL (≈ 12.3 µM)
S. aureus ATCC 25923
  MIC S. aureus 25923: 8 µg/mL (≈ 12.3 µM)
S. pneum AB 34
  MIC S. pneum AB 34: 8 µg/mL (≈ 12.3 µM)
Ent. faecalis ATCC 29212
  MIC E. faecalis 29212: 8 µg/mL (≈ 12.3 µM)
VRE 6A (Ent. faecium 6A)
  MIC VRE 6A: 8 µg/mL (≈ 12.3 µM)
MRSA 15187
  MIC MRSA 15187: 8 µg/mL (≈ 12.3 µM)
Strep. pne. ATCC 6303
  MIC S. pneum 6303: 8 µg/mL (≈ 12.3 µM)

## CC(=O)NC[C@H]1CN(c2ccc(N3CCN(Cc4ccc(C5OCCCO5)o4)CC3)c(F)c2)C(=O)O1 [Compound No. 66]
MRSA 33
  MIC MRSA 33: 2 µg/mL (≈ 3.98 µM)
MRSA 562
  MIC MRSA 562: 2 µg/mL (≈ 3.98 µM)
Strep. pyog. ATCC 19615
  MIC S. pyogenes 19615: 8 µg/mL (≈ 15.9 µM)
S. aureus ATCC 25923
  MIC S. aureus 25923: 2 µg/mL (≈ 3.98 µM)
S. pneum AB 34
  MIC S. pneum AB 34: 8 µg/mL (≈ 15.9 µM)
Ent. faecalis ATCC 29212
  MIC E. faecalis 29212: 16 µg/mL (≈ 31.8 µM)
VRE 6A (Ent. faecium 6A)
  MIC VRE 6A: 16 µg/mL (≈ 31.8 µM)
MRSA 15187
  MIC MRSA 15187: 2 µg/mL (≈ 3.98 µM)
Strep. pne. ATCC 6303
  MIC S. pneum 6303: 8 µg/mL (≈ 15.9 µM)

## CC(=O)NC[C@H]1CN(c2ccc(N3CCN(Cc4ccc([N+](=O)[O-])s4)CC3)c(F)c2)C(=O)O1 [Compound No. 23, (S)-N[[3-[3-Fluoro-4-[N-1[4-(2-thienyl(5-nitro)methyl}]piperazinyl]phenyl]2-oxo-5-oxazolidinyl]methyl]acetamide]
MRSA 33
  MIC MRSA 33: 8 µg/mL (≈ 16.8 µM)
Strep. pyog. ATCC 19615
  MIC S. pyogenes 19615: 1 µg/mL (≈ 2.09 µM)
S. aureus ATCC 25923
  MIC S. aureus 25923: 8 µg/mL (≈ 16.8 µM)
S. pneum AB 34
  MIC S. pneum AB 34: 8 µg/mL (≈ 16.8 µM)
Ent. faecalis ATCC 29212
  MIC E. faecalis 29212: 8 µg/mL (≈ 16.8 µM)
VRE 6A (Ent. faecium 6A)
  MIC VRE 6A: 8 µg/mL (≈ 16.8 µM)
MRSA 15187
  MIC MRSA 15187: 8 µg/mL (≈ 16.8 µM)
Strep. pne. ATCC 6303
  MIC S. pneum 6303: 8 µg/mL (≈ 16.8 µM)
